Assay results: ChEMBL document CHEMBL3885861, “Open TG-GATES”

Organism: Rattus norvegicus
Assay: Open TG-GATES - Regimen: Single
Format: toxicity, organism-based, Sprague-Dawley
Design: regimen Single, gender Male, age 6 weeks
Conditions: in vivo, po, route gavage; for APTT / Bas / Eos / Fbg / Hb / Ht / Lym / MCH / MCHC / MCV / Mono / Neu / PT / Plat / RBC / Ret / WBC: tissue Blood; for KIDNEY_L / KIDNEY_R / KIDNEY_TOTAL: tissue Kidney; for LIVER: tissue Liver; for A/G / ALP / ALT / AST / BUN / CRE / Ca / Cl / DBIL / GLC / IP / K / LDH / Na / PL / RALB / TBIL / TC / TG / TP / gamma-GTP: tissue Plasma
[1] = 1200 mg/kg, 3 h, dose level Middle
[2] = 1200 mg/kg, 6 h, dose level Middle
[3] = 1200 mg/kg, 9 h, dose level Middle
[4] = 1200 mg/kg, 24 h, dose level Middle
[5] = 4000 mg/kg, 3 h, dose level High
[6] = 4000 mg/kg, 6 h, dose level High
[7] = 4000 mg/kg, 9 h, dose level High
[8] = 4000 mg/kg, 24 h, dose level High

## CCO [ALCOHOL]
[1]
  TERMINAL_BW: 203.8 g
  APTT: 18.7 s
  Bas: 0%
  Eos: 1%
  Fbg: 200 mg/dL
  Hb: 13.2 g/dL
  Ht: 39.1%
  Lym: 72%
  MCH: 22.1 pg
  MCHC: 33.7%
  MCV: 65.5 fL
  Mono: 5.6%
  Neu: 21.6%
  PT: 12.4 s
  Plat: 108.6 x10_4/uL
  RBC: 596.8 x10_4/ul
  Ret: 8.1%
  WBC: 95.6 x10_2/uL
  KIDNEY_L: 0.9 g
  KIDNEY_R: 1 g
  KIDNEY_TOTAL: 1.9 g
  LIVER: 9.2 g
  A/G: 2.8
  ALP: 973.6 IU/L
  ALT: 38 IU/L
  AST: 69.8 IU/L
  BUN: 9 mg/dL
  CRE: 0.5 mg/dL
  Ca: 10.7 mg/dL
  Cl: 104.6 meq/L
  DBIL: 0.016 mg/dL
  GLC: 204.4 mg/dL
  IP: 8.9 mg/dL
  K: 4.5 meq/L
  LDH: 121.2 IU/L
  Na: 140 meq/L
  PL: 138 mg/dL
  RALB: 3.8 g/dL
  TBIL: 0.4 mg/dL
  TC: 74.8 mg/dL
  TG: 60.8 mg/dL
  TP: 5.2 g/dL
  gamma-GTP: 1.2 IU/L
[2]
  TERMINAL_BW: 203.8 g
  APTT: 17.5 s
  Bas: 0%
  Eos: 1.2%
  Fbg: 196.6 mg/dL
  Hb: 13.3 g/dL
  Ht: 39.9%
  Lym: 67%
  MCH: 21.7 pg
  MCHC: 33.3%
  MCV: 65 fL
  Mono: 12%
  Neu: 19.4%
  PT: 12.2 s
  Plat: 98.4 x10_4/uL
  RBC: 615.4 x10_4/ul
  Ret: 13.5%
  WBC: 87.4 x10_2/uL
  KIDNEY_L: 0.9 g
  KIDNEY_R: 1 g
  KIDNEY_TOTAL: 1.9 g
  LIVER: 9.2 g
  A/G: 2.4
  ALP: 827.2 IU/L
  ALT: 36 IU/L
  AST: 71 IU/L
  BUN: 11.4 mg/dL
  CRE: 0.5 mg/dL
  Ca: 10.5 mg/dL
  Cl: 105.2 meq/L
  DBIL: 0.066 mg/dL
  GLC: 203 mg/dL
  IP: 10.3 mg/dL
  K: 4.6 meq/L
  LDH: 87 IU/L
  Na: 140.8 meq/L
  PL: 132.4 mg/dL
  RALB: 3.8 g/dL
  TBIL: 0.4 mg/dL
  TC: 69.2 mg/dL
  TG: 59.4 mg/dL
  TP: 5.3 g/dL
  gamma-GTP: 1.8 IU/L
[3]
  TERMINAL_BW: 201.5 g
  APTT: 17.2 s
  Bas: 0%
  Eos: 1.6%
  Fbg: 204.2 mg/dL
  Hb: 13.5 g/dL
  Ht: 40.2%
  Lym: 73%
  MCH: 21.2 pg
  MCHC: 33.5%
  MCV: 63.3 fL
  Mono: 7.4%
  Neu: 18.2%
  PT: 12.1 s
  Plat: 114.7 x10_4/uL
  RBC: 635.8 x10_4/ul
  Ret: 9.9%
  WBC: 73.2 x10_2/uL
  KIDNEY_L: 0.9 g
  KIDNEY_R: 0.9 g
  KIDNEY_TOTAL: 1.9 g
  LIVER: 8.4 g
  A/G: 2.8
  ALP: 845 IU/L
  ALT: 28.8 IU/L
  AST: 61.6 IU/L
  BUN: 11 mg/dL
  CRE: 0.5 mg/dL
  Ca: 10.9 mg/dL
  Cl: 105.8 meq/L
  DBIL: 0.042 mg/dL
  GLC: 192 mg/dL
  IP: 10.7 mg/dL
  K: 4.7 meq/L
  LDH: 102 IU/L
  Na: 136.4 meq/L
  PL: 132.2 mg/dL
  RALB: 4.1 g/dL
  TBIL: 0.4 mg/dL
  TC: 71.6 mg/dL
  TG: 35 mg/dL
  TP: 5.6 g/dL
  gamma-GTP: 1.4 IU/L
[4]
  TERMINAL_BW: 217.4 g
  APTT: 17.6 s
  Bas: 0%
  Eos: 1.2%
  Fbg: 207.2 mg/dL
  Hb: 13.2 g/dL
  Ht: 39.2%
  Lym: 73.4%
  MCH: 21.8 pg
  MCHC: 33.6%
  MCV: 64.9 fL
  Mono: 9.2%
  Neu: 16.4%
  PT: 11.4 s
  Plat: 113.3 x10_4/uL
  RBC: 604.6 x10_4/ul
  Ret: 10.6%
  WBC: 106.7 x10_2/uL
  KIDNEY_L: 1 g
  KIDNEY_R: 1 g
  KIDNEY_TOTAL: 1.9 g
  LIVER: 10.5 g
  A/G: 2.6
  ALP: 909 IU/L
  ALT: 37.8 IU/L
  AST: 64.8 IU/L
  BUN: 21.2 mg/dL
  CRE: 0.5 mg/dL
  Ca: 11 mg/dL
  Cl: 103.6 meq/L
  DBIL: 0 mg/dL
  GLC: 188 mg/dL
  IP: 8.8 mg/dL
  K: 4.9 meq/L
  LDH: 109.8 IU/L
  Na: 138.8 meq/L
  PL: 159.4 mg/dL
  RALB: 4 g/dL
  TBIL: 0.3 mg/dL
  TC: 83.6 mg/dL
  TG: 101.8 mg/dL
  TP: 5.6 g/dL
  gamma-GTP: 1 IU/L
[5]
  TERMINAL_BW: 206.9 g
  APTT: 17.9 s
  Bas: 0%
  Eos: 1.6%
  Fbg: 188.4 mg/dL
  Hb: 13.4 g/dL
  Ht: 40.1%
  Lym: 78%
  MCH: 21.9 pg
  MCHC: 33.4%
  MCV: 65.6 fL
  Mono: 7.2%
  Neu: 13.8%
  PT: 12.2 s
  Plat: 110.6 x10_4/uL
  RBC: 612.2 x10_4/ul
  Ret: 9.9%
  WBC: 86.8 x10_2/uL
  KIDNEY_L: 1 g
  KIDNEY_R: 1 g
  KIDNEY_TOTAL: 1.9 g
  LIVER: 9.6 g
  A/G: 2.5
  ALP: 733.4 IU/L
  ALT: 35.2 IU/L
  AST: 65.8 IU/L
  BUN: 8.8 mg/dL
  CRE: 0.5 mg/dL
  Ca: 10.3 mg/dL
  Cl: 104.4 meq/L
  DBIL: 0.02 mg/dL
  GLC: 212.4 mg/dL
  IP: 9.1 mg/dL
  K: 4.7 meq/L
  LDH: 106.2 IU/L
  Na: 139.8 meq/L
  PL: 148.4 mg/dL
  RALB: 3.8 g/dL
  TBIL: 0.4 mg/dL
  TC: 79.8 mg/dL
  TG: 77.8 mg/dL
  TP: 5.3 g/dL
  gamma-GTP: 1.8 IU/L
[6]
  TERMINAL_BW: 206.9 g
  APTT: 19.1 s
  Bas: 0%
  Eos: 1.2%
  Fbg: 205 mg/dL
  Hb: 13.5 g/dL
  Ht: 40.4%
  Lym: 81%
  MCH: 21.3 pg
  MCHC: 33.4%
  MCV: 63.9 fL
  Mono: 4.6%
  Neu: 13.4%
  PT: 11.8 s
  Plat: 112.3 x10_4/uL
  RBC: 632.8 x10_4/ul
  Ret: 13.6%
  WBC: 124.9 x10_2/uL
  KIDNEY_L: 1 g
  KIDNEY_R: 1 g
  KIDNEY_TOTAL: 1.9 g
  LIVER: 9.6 g
  A/G: 2.3
  ALP: 839.4 IU/L
  ALT: 31 IU/L
  AST: 59.4 IU/L
  BUN: 8.6 mg/dL
  CRE: 0.5 mg/dL
  Ca: 10.4 mg/dL
  Cl: 104.2 meq/L
  DBIL: 0.078 mg/dL
  GLC: 204.6 mg/dL
  IP: 9.7 mg/dL
  K: 5 meq/L
  LDH: 78 IU/L
  Na: 139 meq/L
  PL: 153.6 mg/dL
  RALB: 3.7 g/dL
  TBIL: 0.4 mg/dL
  TC: 82.6 mg/dL
  TG: 46 mg/dL
  TP: 5.4 g/dL
  gamma-GTP: 1.4 IU/L
[7]
  TERMINAL_BW: 200.3 g
  APTT: 17.6 s
  Bas: 0%
  Eos: 1%
  Fbg: 205.2 mg/dL
  Hb: 13.5 g/dL
  Ht: 40.5%
  Lym: 76.4%
  MCH: 21.8 pg
  MCHC: 33.4%
  MCV: 65.3 fL
  Mono: 7%
  Neu: 15.6%
  PT: 12 s
  Plat: 107.8 x10_4/uL
  RBC: 621.6 x10_4/ul
  Ret: 9.9%
  WBC: 72.9 x10_2/uL
  KIDNEY_L: 0.9 g
  KIDNEY_R: 1 g
  KIDNEY_TOTAL: 1.9 g
  LIVER: 8.2 g
  A/G: 2.7
  ALP: 857.6 IU/L
  ALT: 30.6 IU/L
  AST: 65.8 IU/L
  BUN: 12.8 mg/dL
  CRE: 0.4 mg/dL
  Ca: 10.8 mg/dL
  Cl: 105.6 meq/L
  DBIL: 0.04 mg/dL
  GLC: 190.8 mg/dL
  IP: 10 mg/dL
  K: 5 meq/L
  LDH: 96.4 IU/L
  Na: 137 meq/L
  PL: 154 mg/dL
  RALB: 4.1 g/dL
  TBIL: 0.4 mg/dL
  TC: 79.8 mg/dL
  TG: 49 mg/dL
  TP: 5.6 g/dL
  gamma-GTP: 1.4 IU/L
[8]
  TERMINAL_BW: 210.8 g
  APTT: 16.5 s
  Bas: 0%
  Eos: 2%
  Fbg: 202 mg/dL
  Hb: 13.8 g/dL
  Ht: 40.7%
  Lym: 70.4%
  MCH: 21.5 pg
  MCHC: 33.8%
  MCV: 63.5 fL
  Mono: 11.4%
  Neu: 16.4%
  PT: 11.8 s
  Plat: 115.4 x10_4/uL
  RBC: 640.6 x10_4/ul
  Ret: 10.2%
  WBC: 84.1 x10_2/uL
  KIDNEY_L: 0.9 g
  KIDNEY_R: 1 g
  KIDNEY_TOTAL: 1.9 g
  LIVER: 9.5 g
  A/G: 2.6
  ALP: 971 IU/L
  ALT: 41.8 IU/L
  AST: 68.2 IU/L
  BUN: 17.6 mg/dL
  CRE: 0.5 mg/dL
  Ca: 10.9 mg/dL
  Cl: 103.4 meq/L
  DBIL: 0.014 mg/dL
  GLC: 200.4 mg/dL
  IP: 8.5 mg/dL
  K: 4.9 meq/L
  LDH: 102.6 IU/L
  Na: 138 meq/L
  PL: 155 mg/dL
  RALB: 4 g/dL
  TBIL: 0.3 mg/dL
  TC: 80.8 mg/dL
  TG: 109.8 mg/dL
  TP: 5.5 g/dL
  gamma-GTP: 1.2 IU/L
